GI50 and TGI data for 15 molecules are collected here from PubChem BioAssay (NCI).

Holding throughout (test): NCI anticancer screen, dose series, 48 h
In test [1] the test system is TK-10 renal.
The test system of test [2] is HOP-62 NSCLC.
Test [3] concerns OVCAR-8 ovarian.
The subject of test [4] is NCI-H522 lung.
The test system of test [5] is LOX IMVI melanoma.
Test [6] relates to MOLT-4 leukemia.
The test system of test [7] is A498 renal.
The subject of test [8] is SF-539 CNS.
For test [9], the system named is EKVX NSCLC.
For test [10], the system named is T-47D breast.

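These data come from cells grown in 96-well plates and exposed to compound for 48 hours at five concentrations. The concentration for 50% growth inhibition is given as GI50. TGI: concentration producing complete growth inhibition.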 Where only a bound is given, the exact number is not on record here.

As for `[O-]c1ccccc1C=NCCN=Cc1ccccc1[O-].[O]=[U+2]=[O]`, the GI50 in [1] was 26.3 µM; in test [2] it was over 43300 nM; in [3], 31.2 µM; in test [4], over 53400 nM; in test [5] it was 22.2 µM; in test [6], 53.7 µM. Besides, the GI50 in [7] is over 45600 nM; in [8], 16.7 µM; in test [9] it was 61.5 µM. Also, the TGI in test [1] was 53.1 µM; in [2], over 67 µM; in [3] it was over 94.6 µM; in test [4], over 75.2 µM; in test [5], over 100 µM; in [6] it was over 100 µM. In addition, the TGI in test [7] was over 64.8 µM; in test [8] it was 37.6 µM; in test [9], over 100 µM.

Consider `CC(C)CC(NC(=O)C(O)C(N)Cc1ccccc1)C(=O)O` (stereo not drawn), for which the TGI in [1], in test [2], in test [10], in test [3], in test [5] and in [6] was over 100 µM throughout. The TGI in test [8] and in [9] was over 100 µM throughout.

Take `CCOc1ccc2c(c1)[n+]([O-])c(C(N)=O)c(N)[n+]2[O-]`: the TGI in test [2], in test [3], in test [4], in test [6], in test [7] and in test [8] was over 100 µM in each case. This molecule also gave a TGI in test [9] of over 100 µM.

`CCN(CC)C(=O)c1cccc2c(OC)ccc(OC)c12`: the TGI in test [1], in test [2], in test [3], in test [4], in test [5] and in test [6] was over 100 µM each time. Also, the TGI in test [7] and in test [9] was over 100 µM in each case.

In the case of `CC1=NC2(C(=O)O)C3(C(=O)O)N=C(C)OC3(C(F)(F)F)C2(C(F)(F)F)O1` (stereo not drawn), the TGI in [1], in test [2], in test [3], in test [4], in test [5] and in [6] was over 100 µM throughout. Further, the TGI in test [7], in [8] and in test [9] was over 100 µM in each case.

Consider `c1ccc2[nH]c(-c3ccc(Nc4nc(N5CCCC5)nc5[nH]ncc45)cc3)nc2c1`, for which the GI50 in test [1] was 1.91 µM; in test [2], 1460 nM; in test [3] it was 0.241 µM; in [4] it was 244 nM; in test [7], 1510 nM; in test [8], 1.05 µM. Further, in test [9], the GI50 is 1.45 µM. Further, the TGI came to 3.53 µM in test [1]; 3.07 µM in test [2]; 0.621 µM in [3]; 1.07 µM in test [4]; 3.01 µM in [7]; 2.24 µM in [8]. This molecule also had a TGI in test [9] of 3.12 µM.

For `O=C1C2C3SC(c4cc5ccccc5cc43)C2C(=O)N1c1ccccc1` (stereo not drawn), the TGI in test [1], in test [3], in [4], in test [5], in test [6] and in test [7] was over 100 µM in each case. The TGI in test [8] and in [9] was over 100 µM each time.

Regarding `NCCNCCNCc1c2ccccc2c(CNCCNCCN)c2ccccc12`, the TGI in test [1], in [2], in test [3], in [5], in [6] and in test [8] was over 100 µM in each case. The TGI in test [9] is over 100 µM.

Consider `CCOc1ccc2c(c1)[n+]([O-])c(-c1ccccc1)c(N)[n+]2[O-]`, for which the TGI in [1] is over 100 µM; in [2], over 100 µM; in test [3] it was over 100 µM; in test [4], 32.2 µM; in [5], over 100 µM; in test [6], over 100 µM. Also, the TGI in [7], in test [8] and in test [9] was over 100 µM throughout.

Consider `O=S1(=O)[C@H](c2ccccc2)c2c(-c3ccccc3)sc(-c3ccccc3)c2[C@@H]1c1ccccc1`, for which the TGI in test [1], in [2], in test [3], in test [4], in test [5] and in test [6] was over 100 µM in each case. Moreover, the TGI in test [8] and in test [9] was over 100 µM in each case.

On to `O=C(O)c1ccccc1NS(=O)(=O)c1ccc(Cl)cc1`, for which the TGI in test [1], in test [2], in [3], in test [4], in [5] and in [6] was over 100 µM throughout. The TGI in test [8] and in test [9] was over 100 µM each time.

As to `CCOP(=O)(OCC)C(C(=O)OC)C(=O)C(=O)Nc1cccc([N+](=O)[O-])c1` (stereo not drawn), the TGI in test [1], in [2], in test [3], in test [4], in [5] and in [6] was over 100 µM each time. Also, the TGI in test [7], in test [8] and in [9] was over 100 µM each time.

Turning to `CC1COS(=O)N1c1ccccc1` (stereo not drawn), the TGI in test [1], in [2], in test [3], in test [4], in test [5] and in test [6] was over 100 µM throughout. Besides, the TGI in test [7] and in [9] was over 100 µM throughout.

Consider `CC(NC(=O)c1ccc(Cl)c(Cl)c1)c1ccc(-c2ccccc2)cc1` (stereo not drawn), for which the TGI in test [1] was 68.7 µM; in test [2], 54.5 µM; in test [3], 82.5 µM; in test [4], over 100 µM; in test [5], over 100 µM; in test [7] it was over 100 µM. Besides, the values for the TGI in test [8] and in test [9] were 42.9 µM and over 100 µM, respectively.

As to `O=C1CN=C(c2ccccc2)c2ccncc2N1`, the TGI in test [1], in [2], in test [3], in test [4], in [5] and in [6] was over 100 µM each time. For the same molecule, the TGI in test [7], in test [8] and in test [9] was over 100 µM each time.
